Assay results as given in patent US10888569B1, “Methods and compositions for treating cancer” (THE UNIVERSITY OF CHICAGO, priority 2017, dated 2021).
Entries after “also recorded” stand apart in the source; their conditions may differ.

How the values were obtained:
C3(1)-TAg tumors = assay: Transgenic TNBC mouse model C3(1)-TAg treated with metformin; format: in vivo; conditions: metformin 200 mg/kg/day, absence of hemin; very low BACH1 expression
Experimental: For a transgenic TNBC mouse model, C3(1)-TAg, mice (n=5/group) were treated with metformin (200 mg/kg/day), after 10 days of mice developed palpable tumors (about 25 mm^3), at age of 15 weeks. Tumor volume was assayed by caliper measurement twice per week.

[1] = metformin 200-300 mg/kg; cited from earlier work
[2] = in vivo; cited from earlier work
[3] = test system: TNBC cells (BM1, MB436, MB468, BT549); format: cell-based, human
Experimental: TNBC cell lines stably knocked down with lenti-viral shRNA for BACH1 were constructed and maintained as described previously. Gene expression analysis of cultured cells and isolated tumor tissues used a Reverse transcriptase kit followed by Roche96 cycler for real time mRNA quantification and Lycor imaging for immunoblotting. For in vitro cell viability assay with mitochondrial inhibitors, TNBC cells (2×10^3-5×10^3/well) seeded on 96 well plates overnight with culture media (DMEM with 25 mM Glucose) were treated with inhibitors in fresh culture media (DMEM with 1.25 mM Glucose) for 48 and 72 hours and stained with calcein AM and/or monitored for cellular confluency using an IncuCyte Zoom Live Cell Analysis system. Extracellular flux analyzer was used to assay metabolic phenotypes of BACH1-depleted TNBC cells and TNBC cells that are treated with hemin overnight before assays. For bioinformatics analysis using primary patient data cohort (TCGA), cBioportal and R were used.
(§1) Breast cancer cells (5,000 cells/well) and non-malignant mammary epithelial cells (8,000 cells/well) were plated on 96-well plates to observe growth of cells every 4 hours by phase contrast imaging using an IncuCyte Zoom Live Cell Analysis system (Essen Bioscience). After 24 hours of plating, inhibitors were added and monitored until control cells reached 100% confluent. To determine cell viability, cells were seeded in black walled 96-well plates overnight and treated with inhibitors for 48 hours. Calcein AM (R&D system) in PBS was then added and incubated for 1 hour at 37° C. Fluorescence was determined using a Victor3 plate reader (PerkinElmer) with excitation at 420 nm and emission at 520 nm. The absorbance was used to reflect live cell numbers and was normalized to those in control with vehicles and shown as relative viability (%).

[4] = test system: MB436-shBACH1 and BM1-shBACH1 (and shCont) xenograft TNBC tumors; assay: BACH1-depleted xenograft TNBC tumors treated with metformin; format: in vivo, mouse
Experimental: (§2) Two million human breast cancer cells (MDA-MB-436-shCont, MDA-MB-436-shBACH1, BM1-shBACH1, or BM1-shCont) in 100 μl PBS were injected into the mammary fat pads of 5 to 6 weeks old athymic nude female mice (Charles River Laboratories). When tumors were about 20-30 or 50 mm^3 in volume, hemin (50 mg/kg/day) or vehicle (20 mM NaOH in phosphate buffered saline) was injected intraperitoneally for 10 days prior to metformin treatment for 8 weeks. Metformin (200 mg/kg for MDA-MB-436 cells or 300 mg/kg for BM1-cells) was provided in drinking water ad libidum. Tumor growth was monitored weekly by caliper measurement in two dimensions to generate ellipsoid volumes using an equation of vol.=0.4×(L×W^2).

[5] = test system: non-malignant mammary epithelial cells (184A1 and MCF10A); assay: Cell viability (calcein AM) of non-malignant mammary epithelial cells; format: cell-based, human; conditions: 48 hours
Experimental: as §1

MB436 xenograft tumors = conditions: hemin 50 mg/kg/day i.p. 10 consecutive days prior to metformin 200 mg/kg
Experimental: as §2

[6] = test system: NAD+/NADH in shBACH1 TNBC cells; assay: NAD/NADH-Glo measurement; format: cell-based, human; conditions: pyruvate 2.5 mM added to growth media
Experimental: NAD(H) was measured using the NAD/NADH-Glo Assay kit (Promega) in accordance with the manufacturer's protocol. Lactate produced by cells were measured using the media that 5×10^5 cells were plated on 6 well plates in 2 ml media containing 1.25 mM glucose for 3 days or overnight. Harvested media was used for L-Lactate Assay Kit I (Eton Bioscience). For glucose consumption measurement, media from the cells cultured in 12 well plates were freshly replenished with media containing 5 mM glucose and collected after 21 hours for glucose measurement using Glucose Assay Kit I (Eton Bioscience).

[7] = Cell viability (calcein AM) of non-malignant mammary epithelial cells; format: cell-based, human; conditions: human, non-malignant mammary epithelial cells (184A1 and MCF10A), read-out: reduction of cell viability of non-malignant mammary epithelial cells
Experimental: as §1

CN(C)C(=N)N=C(N)N [metformin]
sensitivity of C3(1)-TAg mice tumors (C3(1)-TAg tumors): highly sensitive to metformin
mouse tumor and plasma concentrations [1]: 3 to 12 µM
levels in metformin-treated human diabetic patients [2]: ~10 µM
metformin response on overexpression of wt BACH1 in MB436-shBACH1 cells [3]: generated a metformin-resistance phenotype
resistance to metformin on expression of Mut-Bach1 following heme treatment ([3]; BM1-shBACH1 and MB436-shBACH1 cells): restored resistance to metformin
sensitivity to metformin on BACH knockdown ([3]; MB436 or BM1 cells): increased sensitivity to metformin treatment
inhibitory effect of metformin after addition of pyruvate to growth media ([3]; pyruvate 2.5 mM, shBACH1 TNBC cells): completely rescued the inhibitory effect of metformin
metformin resistance and cell growth after silencing COX15 or UQCRC1 ([3]; siRNA for COX15 or UQCRC1 in BM1-shBACH1 cells): completely restored metformin resistance
growth of BM1 xenograft tumors expressing shBACH1 ([4]; metformin 300 mg/kg/day): Comparable results
growth of TNBC tumors stably expressing shBACH1 ([4]; metformin 200-300 mg/kg in drinking water, within a week of administration, MB436-shBACH1): drastically suppressed; also recorded: reduction of MB436-shBACH1 tumor volume
control tumor growth ([4]; metformin alone, 200-300 mg/kg in drinking water, control (shCont) xenografts): no effect on control tumor growth
tumor-free mice ([4]; shBACH1 MB436 xenograft mice following metformin treatment): a significant fraction of shBACH xenograft mice were tumor-free; also recorded: a significant fraction of shBACH1 MB436 xenograft mice were tumor-free
viability of non-malignant mammary epithelial cells [5]: did not alter the viability
breast tumor growth / volume (MB436 xenograft tumors): neither hemin nor metformin alone significantly altered tumor growth

CC(=O)C(=O)O [pyruvate]
NAD+ levels [6]: increased

C=C(C)[C@H]1Cc2c(ccc3c2O[C@@H]2COc4cc(OC)c(OC)cc4[C@@H]2C3=O)O1 [rotenone]
cytotoxicity at 48 h [7]: 25 to 50%
